Assay results from the NIST ThermoML archive (doi:10.1021/acs.jced.5b00366).
Numbers after ± are expanded uncertainties.

Assays:
[1] = 102 kPa, Liquid, Vibrating tube method
[2] = xn = mol fraction of the nth substance listed; settings: 102 kPa, Liquid, Vibrating tube method
[3] = mn = molality of the nth substance listed, in mol/kg; settings: 102 kPa, Liquid, Vibrating tube method

For `CCCCO` [butan-1-ol], the mass density ([1]; 293.15 K) was 809.84 ± 3.2 kg/m3, the mass density ([1]; 298.15 K) was 806.03 ± 3.2 kg/m3 and the mass density ([1]; 303.15 K) was 802.19 ± 3.2 kg/m3. The mass density ([1]; 308.15 K) was 798.38 ± 3.2 kg/m3.
In the case of `CCCCO` [butan-1-ol] + CO, the mass density ([2]; 293.15 K, x1 = 0.05) is reported as 793 ± 3.3 kg/m3, the mass density ([2]; 293.15 K, x1 = 0.1) is reported as 794.55 ± 3.3 kg/m3 and the mass density ([2]; 293.15 K, x1 = 0.15) is reported as 795.82 ± 3.3 kg/m3. It also gave a mass density ([2]; 293.15 K, x1 = 0.2) of 797.09 ± 3.6 kg/m3, a mass density ([2]; 293.15 K, x1 = 0.25) of 798.29 ± 3.2 kg/m3 and a mass density ([2]; 293.15 K, x1 = 0.3) of 799.4 ± 3.2 kg/m3. For the same compound, the mass density ([2]; 293.15 K, x1 = 0.4) was 801.48 ± 3.3 kg/m3, the mass density ([2]; 293.15 K, x1 = 0.5) was 803.28 ± 3.2 kg/m3 and the mass density ([2]; 293.15 K, x1 = 0.6) was 804.87 ± 3.2 kg/m3. For the same compound, the mass density ([2]; 293.15 K, x1 = 0.7) was 806.38 ± 3.2 kg/m3, the mass density ([2]; 293.15 K, x1 = 0.8) was 807.62 ± 3.2 kg/m3 and the mass density ([2]; 293.15 K, x1 = 0.9) was 808.83 ± 3.2 kg/m3. It also gave a mass density ([2]; 293.15 K, x1 = 1) of 809.84 ± 3.2 kg/m3, a mass density ([2]; 298.15 K, x1 = 0.05) of 788.48 ± 3.3 kg/m3 and a mass density ([2]; 298.15 K, x1 = 0.1) of 790.15 ± 3.3 kg/m3. The mass density ([2]; 298.15 K, x1 = 0.15) was 791.52 ± 3.2 kg/m3, the mass density ([2]; 298.15 K, x1 = 0.2) was 792.81 ± 3.2 kg/m3 and the mass density ([2]; 298.15 K, x1 = 0.25) was 794.06 ± 3.2 kg/m3. It also gave a mass density ([2]; 298.15 K, x1 = 0.3) of 795.23 ± 3.2 kg/m3, a mass density ([2]; 298.15 K, x1 = 0.4) of 797.4 ± 3.2 kg/m3 and a mass density ([2]; 298.15 K, x1 = 0.5) of 799.27 ± 3.2 kg/m3. The mass density ([2]; 298.15 K, x1 = 0.6) was 800.94 ± 3.2 kg/m3, the mass density ([2]; 298.15 K, x1 = 0.7) was 802.48 ± 3.2 kg/m3 and the mass density ([2]; 298.15 K, x1 = 0.8) was 803.77 ± 3.2 kg/m3. The mass density ([2]; 298.15 K, x1 = 0.9) was 804.99 ± 3.2 kg/m3, the mass density ([2]; 298.15 K, x1 = 1) was 806.03 ± 3.2 kg/m3 and the mass density ([2]; 303.15 K, x1 = 0.05) was 783.92 ± 3.3 kg/m3. It also gave a mass density ([2]; 303.15 K, x1 = 0.1) of 785.69 ± 3.3 kg/m3, a mass density ([2]; 303.15 K, x1 = 0.15) of 787.15 ± 3.2 kg/m3 and a mass density ([2]; 303.15 K, x1 = 0.2) of 788.52 ± 3.2 kg/m3. For the same compound, the mass density ([2]; 303.15 K, x1 = 0.25) was 789.82 ± 3.2 kg/m3, the mass density ([2]; 303.15 K, x1 = 0.3) was 791.01 ± 3.2 kg/m3 and the mass density ([2]; 303.15 K, x1 = 0.4) was 793.26 ± 3.2 kg/m3. For the same compound, the mass density ([2]; 303.15 K, x1 = 0.5) was 795.21 ± 3.2 kg/m3, the mass density ([2]; 303.15 K, x1 = 0.6) was 796.94 ± 3.2 kg/m3 and the mass density ([2]; 303.15 K, x1 = 0.7) was 798.57 ± 3.2 kg/m3. For the same compound, the mass density ([2]; 303.15 K, x1 = 0.8) was 799.91 ± 3.2 kg/m3, the mass density ([2]; 303.15 K, x1 = 0.9) was 801.12 ± 3.2 kg/m3 and the mass density ([2]; 303.15 K, x1 = 1) was 802.19 ± 3.2 kg/m3. For the same compound, the mass density ([2]; 308.15 K, x1 = 0.05) was 779.32 ± 3.3 kg/m3, the mass density ([2]; 308.15 K, x1 = 0.1) was 781.19 ± 3.2 kg/m3 and the mass density ([2]; 308.15 K, x1 = 0.15) was 782.74 ± 3.2 kg/m3. It also gave a mass density ([2]; 308.15 K, x1 = 0.2) of 784.19 ± 3.3 kg/m3, a mass density ([2]; 308.15 K, x1 = 0.25) of 785.52 ± 3.2 kg/m3 and a mass density ([2]; 308.15 K, x1 = 0.3) of 786.78 ± 3.2 kg/m3. For the same compound, the mass density ([2]; 308.15 K, x1 = 0.4) was 789.13 ± 3.2 kg/m3, the mass density ([2]; 308.15 K, x1 = 0.5) was 791.18 ± 3.2 kg/m3 and the mass density ([2]; 308.15 K, x1 = 0.6) was 792.99 ± 3.2 kg/m3. It also gave a mass density ([2]; 308.15 K, x1 = 0.7) of 794.64 ± 3.2 kg/m3, a mass density ([2]; 308.15 K, x1 = 0.8) of 796.04 ± 3.2 kg/m3 and a mass density ([2]; 308.15 K, x1 = 0.9) of 797.29 ± 3.2 kg/m3. The mass density ([2]; 308.15 K, x1 = 1) was 798.38 ± 3.2 kg/m3.
Work on `[Cd+2].[I-].[I-]` [cadmium iodide (CdI2)] + CCCCO yielded a mass density ([3]; 293.15 K, m1 = 0.004) of 811.57 ± 3.3 kg/m3, a mass density ([3]; 293.15 K, m1 = 0.005) of 811.75 ± 3.3 kg/m3 and a mass density ([3]; 293.15 K, m1 = 0.006) of 811.98 ± 3.3 kg/m3. It also gave a mass density ([3]; 293.15 K, m1 = 0.008) of 812.48 ± 3.3 kg/m3, a mass density ([3]; 293.15 K, m1 = 0.01) of 813.03 ± 3.3 kg/m3 and a mass density ([3]; 293.15 K, m1 = 0.02) of 815.24 ± 3.3 kg/m3. The mass density ([3]; 293.15 K, m1 = 0.05) was 822.26 ± 3.3 kg/m3, the mass density ([3]; 293.15 K, m1 = 0.08) was 830.17 ± 3.3 kg/m3 and the mass density ([3]; 298.15 K, m1 = 0.004) was 807.62 ± 3.3 kg/m3. It also gave a mass density ([3]; 298.15 K, m1 = 0.005) of 807.92 ± 3.3 kg/m3, a mass density ([3]; 298.15 K, m1 = 0.006) of 808.19 ± 3.3 kg/m3 and a mass density ([3]; 298.15 K, m1 = 0.008) of 808.94 ± 3.3 kg/m3. For the same compound, the mass density ([3]; 298.15 K, m1 = 0.01) was 809.67 ± 3.3 kg/m3, the mass density ([3]; 298.15 K, m1 = 0.02) was 811.39 ± 3.3 kg/m3 and the mass density ([3]; 298.15 K, m1 = 0.05) was 819.27 ± 3.3 kg/m3. The mass density ([3]; 298.15 K, m1 = 0.08) was 826.26 ± 3.3 kg/m3, the mass density ([3]; 303.15 K, m1 = 0.004) was 803.74 ± 3.3 kg/m3 and the mass density ([3]; 303.15 K, m1 = 0.005) was 804.06 ± 3.3 kg/m3. For the same compound, the mass density ([3]; 303.15 K, m1 = 0.006) was 804.49 ± 3.3 kg/m3, the mass density ([3]; 303.15 K, m1 = 0.008) was 805.19 ± 3.3 kg/m3 and the mass density ([3]; 303.15 K, m1 = 0.01) was 805.87 ± 3.3 kg/m3. For the same compound, the mass density ([3]; 303.15 K, m1 = 0.02) was 807.51 ± 3.3 kg/m3, the mass density ([3]; 303.15 K, m1 = 0.05) was 814.48 ± 3.3 kg/m3 and the mass density ([3]; 303.15 K, m1 = 0.08) was 822.32 ± 3.3 kg/m3. For the same compound, the mass density ([3]; 308.15 K, m1 = 0.004) was 799.64 ± 3.4 kg/m3, the mass density ([3]; 308.15 K, m1 = 0.005) was 800.2 ± 3.3 kg/m3 and the mass density ([3]; 308.15 K, m1 = 0.006) was 800.59 ± 3.3 kg/m3. The mass density ([3]; 308.15 K, m1 = 0.008) was 801.3 ± 3.3 kg/m3, the mass density ([3]; 308.15 K, m1 = 0.01) was 802.1 ± 3.3 kg/m3 and the mass density ([3]; 308.15 K, m1 = 0.02) was 803.62 ± 3.3 kg/m3. It also gave a mass density ([3]; 308.15 K, m1 = 0.05) of 810.6 ± 3.3 kg/m3 and a mass density ([3]; 308.15 K, m1 = 0.08) of 818.39 ± 3.3 kg/m3.
`[Cd+2].[I-].[I-]` [cadmium iodide (CdI2)] + CO showed a mass density ([3]; 293.15 K, m1 = 0.004) of 792.58 ± 3.2 kg/m3, a mass density ([3]; 293.15 K, m1 = 0.005) of 792.87 ± 3.2 kg/m3 and a mass density ([3]; 293.15 K, m1 = 0.006) of 793.02 ± 3.2 kg/m3. The mass density ([3]; 293.15 K, m1 = 0.008) was 793.63 ± 3.2 kg/m3, the mass density ([3]; 293.15 K, m1 = 0.01) was 794.17 ± 3.3 kg/m3 and the mass density ([3]; 293.15 K, m1 = 0.02) was 797.09 ± 3.2 kg/m3. The mass density ([3]; 293.15 K, m1 = 0.05) was 805.07 ± 3.2 kg/m3, the mass density ([3]; 293.15 K, m1 = 0.08) was 811.5 ± 3.2 kg/m3 and the mass density ([3]; 298.15 K, m1 = 0.004) was 787.92 ± 3.3 kg/m3. For the same compound, the mass density ([3]; 298.15 K, m1 = 0.005) was 788.22 ± 3.3 kg/m3, the mass density ([3]; 298.15 K, m1 = 0.006) was 788.45 ± 3.3 kg/m3 and the mass density ([3]; 298.15 K, m1 = 0.008) was 789.1 ± 3.3 kg/m3. For the same compound, the mass density ([3]; 298.15 K, m1 = 0.01) was 789.72 ± 3.2 kg/m3, the mass density ([3]; 298.15 K, m1 = 0.02) was 792.37 ± 3.2 kg/m3 and the mass density ([3]; 298.15 K, m1 = 0.05) was 800.28 ± 3.2 kg/m3. It also gave a mass density ([3]; 298.15 K, m1 = 0.08) of 806.75 ± 3.2 kg/m3, a mass density ([3]; 303.15 K, m1 = 0.004) of 783.18 ± 3.2 kg/m3 and a mass density ([3]; 303.15 K, m1 = 0.005) of 783.49 ± 3.2 kg/m3. It also gave a mass density ([3]; 303.15 K, m1 = 0.006) of 783.71 ± 3.2 kg/m3, a mass density ([3]; 303.15 K, m1 = 0.008) of 784.31 ± 3.2 kg/m3 and a mass density ([3]; 303.15 K, m1 = 0.01) of 784.72 ± 3.2 kg/m3. It also gave a mass density ([3]; 303.15 K, m1 = 0.02) of 787.65 ± 3.2 kg/m3, a mass density ([3]; 303.15 K, m1 = 0.05) of 795.4 ± 3.2 kg/m3 and a mass density ([3]; 303.15 K, m1 = 0.08) of 801.87 ± 3.2 kg/m3. It also gave a mass density ([3]; 308.15 K, m1 = 0.004) of 778.43 ± 3.2 kg/m3, a mass density ([3]; 308.15 K, m1 = 0.005) of 778.74 ± 3.2 kg/m3 and a mass density ([3]; 308.15 K, m1 = 0.006) of 778.86 ± 3.3 kg/m3. For the same compound, the mass density ([3]; 308.15 K, m1 = 0.008) was 779.43 ± 3.2 kg/m3, the mass density ([3]; 308.15 K, m1 = 0.01) was 780.04 ± 3.3 kg/m3 and the mass density ([3]; 308.15 K, m1 = 0.02) was 782.94 ± 3.2 kg/m3. The mass density ([3]; 308.15 K, m1 = 0.05) was 790.79 ± 3.2 kg/m3 and the mass density ([3]; 308.15 K, m1 = 0.08) was 797.4 ± 3.2 kg/m3.
`CO` [methanol] gave a mass density ([1]; 293.15 K) of 791.34 ± 3.2 kg/m3, a mass density ([1]; 298.15 K) of 786.68 ± 3.2 kg/m3 and a mass density ([1]; 303.15 K) of 781.96 ± 3.2 kg/m3. The mass density ([1]; 308.15 K) was 777.21 ± 3.2 kg/m3.
Compound `CO` [methanol] + CCCCO has a mass density ([2]; 293.15 K, x2 = 0) of 791.34 ± 3.2 kg/m3, a mass density ([2]; 298.15 K, x2 = 0) of 786.68 ± 3.2 kg/m3 and a mass density ([2]; 303.15 K, x2 = 0) of 781.96 ± 3.2 kg/m3. The mass density ([2]; 308.15 K, x2 = 0) was 777.21 ± 3.2 kg/m3.
